{"source": "patent US4278686A", "about": "“Carbapenum derivatives, a process for their preparation and their use in pharmaceutical compositions and intermediates” (Beecham Group Limited, priority 1978, dated 1981)", "format_in_all_cases": "cell-based", "key": {"Proteus mirabilis 0977": {"tested_on": "Proteus mirabilis 0977", "test": "standard MIC test, Proteus mirabilis 0977 (DST agar+5% horse blood)"}, "Staph. aureus 1517": {"tested_on": "Staph. aureus 1517", "test": "standard MIC test, Staph. aureus 1517 (DST agar+5% horse blood)", "conditions": "Staphylococcus aureus"}, "Klebsiella aerogenes A": {"tested_on": "Klebsiella aerogenes A", "test": "standard MIC test, Klebsiella aerogenes A (DST agar+5% horse blood)"}, "[1]": {"tested_on": "Salmonella typhimurium CT10", "test": "standard MIC test, Salmonella typhimurium CT10 (DST agar+5% horse blood)", "conditions": "Salmonella enterica"}, "E. coli 0111": {"tested_on": "E. coli 0111", "test": "standard MIC test, E. coli 0111 (DST agar+5% horse blood)", "conditions": "Escherichia coli"}, "Serratia marcescens US20": {"tested_on": "Serratia marcescens US20", "test": "standard MIC test, Serratia marcescens US20 (DST agar+5% horse blood)"}, "Shigella sonnei MB 11967": {"tested_on": "Shigella sonnei MB 11967", "test": "standard MIC test, Shigella sonnei MB 11967 (DST agar+5% horse blood)", "conditions": "MB11967"}, "Staph. aureus Oxford": {"tested_on": "Staph. aureus Oxford", "test": "standard MIC test, Staph. aureus Oxford (DST agar+5% horse blood)", "conditions": "Staphylococcus aureus"}, "Staph. aureus Russell": {"tested_on": "Staph. aureus Russell", "test": "standard MIC test, Staph. aureus Russell (DST agar+5% horse blood)", "conditions": "Staphylococcus aureus"}, "Enterobacter cloacae M 1": {"tested_on": "Enterobacter cloacae M 1", "test": "standard MIC test, Enterobacter cloacae M 1 (DST agar+5% horse blood)", "conditions": "M1"}, "Proteus rettgeri WM 16": {"tested_on": "Proteus rettgeri WM 16", "test": "standard MIC test, Proteus rettgeri WM 16 (DST agar+5% horse blood)", "conditions": "Providencia rettgeri, WM16"}, "Citrobacter freundii E8": {"tested_on": "Citrobacter freundii E8", "test": "standard MIC test, Citrobacter freundii E8 (DST agar+5% horse blood)"}, "Proteus vulgaris WO 91": {"tested_on": "Proteus vulgaris WO 91", "test": "standard MIC test, Proteus vulgaris WO 91 (DST agar+5% horse blood)", "conditions": "WO91"}, "Ps aeruginosa A": {"tested_on": "Ps aeruginosa A", "test": "standard MIC test, Ps aeruginosa A (DST agar+5% horse blood)"}, "Proteus morganii I 580": {"tested_on": "Proteus morganii I 580", "test": "standard MIC test, Proteus morganii I 580 (DST agar+5% horse blood)", "conditions": "Morganella morganii, I580"}, "Strep. faecalis I": {"tested_on": "Strep. faecalis I", "test": "standard MIC test, Strep. faecalis I (DST agar+5% horse blood)", "conditions": "Enterococcus faecalis"}}, "data": [{"smiles": "CCSC(C)[C@H]1C(=O)N2C(C(=O)[O-])=C(S/C=C/NC(C)=O)C[C@H]12.[Na+]", "note": "(stereo partly drawn) [e52, Sodium (5R,6R)-3-[(E)-2-acetamidoethenylthio]-6-(-1-ethylthio-ethyl)-7-oxo-1-azabicyclo[3.2.0]hept2-ene-2-carboxylate]", "values": [{"measurement": "MIC", "setting": "Proteus mirabilis 0977", "value": 12.5, "unit": "µg/mL"}, {"measurement": "MIC", "setting": "Staph. aureus 1517", "value": 6.25, "unit": "µg/mL"}, {"measurement": "MIC", "setting": "Klebsiella aerogenes A", "value": 0.8, "unit": "µg/mL"}, {"measurement": "MIC", "setting": "[1]", "value": 6.25, "unit": "µg/mL"}, {"measurement": "MIC", "setting": "E. coli 0111", "value": 3.1, "unit": "µg/mL"}, {"measurement": "MIC", "setting": "Serratia marcescens US20", "value": 6.25, "unit": "µg/mL"}, {"measurement": "MIC", "setting": "Shigella sonnei MB 11967", "value": 3.1, "unit": "µg/mL"}, {"measurement": "MIC", "setting": "Staph. aureus Oxford", "value": 0.8, "unit": "µg/mL"}, {"measurement": "MIC", "setting": "Staph. aureus Russell", "value": 0.8, "unit": "µg/mL"}, {"measurement": "MIC", "setting": "Enterobacter cloacae M 1", "value": 12.5, "unit": "µg/mL"}, {"measurement": "MIC", "setting": "Proteus rettgeri WM 16", "value": 6.25, "unit": "µg/mL"}, {"measurement": "MIC", "setting": "Citrobacter freundii E8", "value": 3.1, "unit": "µg/mL"}, {"measurement": "MIC", "setting": "Proteus vulgaris WO 91", "value": 6.25, "unit": "µg/mL"}, {"measurement": "MIC", "setting": "Ps aeruginosa A", "value": 100, "unit": "µg/mL"}, {"measurement": "MIC", "setting": "Proteus morganii I 580", "value": 12.5, "unit": "µg/mL"}, {"measurement": "MIC", "setting": "Strep. faecalis I", "value": 50, "unit": "µg/mL"}]}]}
